In patent US9518038B2, “Condensation product of theanine derivative and carboxylic acid coumarin derivative, its intermediate, preparation method and use thereof” (SHANDONG YINGDONG YINGHAO BIOTECHNOLOGY, INC., priority 2012, dated 2016):
Marks after values point to notes of the source that are not given here.

Legend:
HDAC3 = HDAC3 enzyme activity in nuclear extracts of human tumor xenografts of treated mice; conditions: first value of the pair HDAC3 and HDAC4, SAHA 25 mg/kg
Experimental: For the detection of the effect of the drugs on enzyme activity of EZH2 and HDAC of in-vivo tumors, the tumors were separately excised after 6 h of medication, total proteins and nucleoproteins were extracted separately to detect and analyze the activity of the enzyme.
(2) 50 μl of diluted sample solution was added into each reaction well, the plate was sealed with a plate-sealing film and reacted at room temperature for 30 min;
(3) the plate-sealing film was carefully peeled off, the liquid was removed, dried, 150 μl of washing liquid was added into each well, stood for 30 s, then the liquid was removed, repeated twice, and dried;
(4) 2 μl of HDAC enzyme or tumor tissue nuclear extracts was respectively uniformly mixed with 28 μl of diluted sample solution, added into the wells, the plate was sealed with the plate-sealing film and reacted at 37° C. for 60 min;
(5) the plate was washed for three times, wherein the operation was the same as that in (3); and a diluted antibody capture working solution was added into each reaction well according to 50 μl/well and reacted on a shaking bed at room temperature for 60 min;
(6) the plate was washed for four times, wherein the operation was the same as that in (3);
(7) a diluted antibody detection working solution was added into each reaction well according to 50 μl/well and reacted at room temperature for 30 min;
(8) the plate was washed for five times, wherein the operation was the same as that in (3);
a color developing agent was added according to 100 μl/well, and performed dark development for 2-10 min;
(9) 50 μl of stop solution was added into each well for stopping the reaction when the color in the well with a standard product turned blue with medium intensity, the color immediately turned yellow from blue after the addition;
(10) the light absorbance (OD value) of each well was measured in sequence at the wavelength of 450 nm; wherein the measurement should be performed within 15 min after addition of the stop solution; and

Dvl-1 = test: Western Blotting, Dvl-1 level; format: cell-based; conditions: human liver cancer cells, Lewis lung cancer cells and other cancer cell lines and tumor tissues, read-out: Effective concentration (IC50) for inhibition of Dvl-1
Source text: (§1) Antibodies: primary antibodies of VEGFR, EGFR, c-Met, K-Ras, H-Ras, Akt, NF-κB, Cyclin D1, ER-alpha, Dvl-1, Dvl-2, Dvl-3, MMP-9, MMP2, β-catenin, Bcl-2, Bax, p53, p21, E-cadherin and Caspase3 protein, purchased from American Cell Signaling Technology Company and Santa Cruz Technology Company; and H3 acetylation, H4 acetylation and HDAC (HDAC3, HDAC4 and the like) Antibody Sample Kits, purchased from Cell Signaling Technology Company of the U.S.
(§2) (3) polyacrylamide gel electrophoresis (SDS-PAGE): an equal amount of protein lysate sample was used to separate protein, film transfer, and blocking, treated with appropriate primary antibodies and secondary antibodies in sequence, and the film was washed, then the color was developed with ECL kit, and a blot protein band was detected by exposure of an X-ray film; and a Gel-Pro Analyzer was used for quantitative analysis of gray degree, optical density value of the control group and the drug treatment group in various concentration were respectively compared with that of internal reference, the obtained ratios were respectively compared with the control group, and the protein expression level was semi-quantified.

[1] = test system: human brain tumor cells Daoy; test: MTT growth inhibition, Daoy cells; format: cell-based; conditions: Homo sapiens, 72 h after treatment, read-out: Drug concentration (IC50) at which 50% cancer cells survived
Source text: (§3) Cell lines and cell culture: human lung cancer cells A549 and H460, human breast cancer cells MCF-7 and MDA-MB-231, human gastric cancer cells BGC-823, human prostate cancer cells PC-3, human chronic leukemia cells K562, human lymphoma cells U937, human liver cancer cells SMMC7721 and HepG2, human colon cancer cells HT29, human pancreatic cancer cells PANC-1 and BxPC3, human cervical cancer Hela cell lines, human brain tumor cells Daoy, human neuroma cells D54 and human oral epidermoid cancer cells KBV200 line with strong drug resistance, mouse melanoma cells B16, and highly metastatic Lewis lung cancer cell lines were purchased from American Type Culture Collection of the U.S. These cells were cultured with DMEM and RPMI-1640 culture solutions separately.
(§4) The procedure was as follows:
(§5) (1) 0.25% trypsin was used to digest cancer cells in a logarithmic growth phase to prepare a single-cell suspension, the concentration of cells was adjusted to 5×10^4/mL, and the adjusted suspension was inoculated into a 96-well culture plate with 100 μl per well;
(§6) (2) The culture plate was transferred into a 37° C. incubator with a saturated humidity and 5% of CO2 and cultured for 24 h; the compounds and the intermediates thereof obtained in embodiments 1-7 and the compound as represented by formula (IIIa) or the positive control anti-cancer drug with the concentration of 1-1000 μM/L were added to enable the final concentration to be 0.1-1500 μM/L. Control wells (only added with 200 μl of cell suspension) and drug-free blank control wells (containing the solvent of 0.01% DMSO) were set, each group included 8 wells, and the plate was placed into the 37° C. incubator with saturated humidity and 5% of CO2 for culturing;
(§7) (3) The 96-well plate was taken out at 48 h and 72 h after dosing, the original culture medium was carefully removed by suction, 100 μl of serum-free DMEM culture medium and 10 μl of MTT (5 mg/mL) solution were added in each well. The plate was continuously cultured for another 4 h and then the culture was terminated;
(§8) (4) The supernatant in the wells was carefully removed by suction, each well was added with 150 μl of DMSO and shaked at room temperature for 10-15 min to fully dissolve crystals.
(§9) (5) Colorimetric analysis: the wavelength was selected as 570 nm, the light absorbance (A value) of each well was determined on the microplate reader and the results were recorded; the experiment was repeated for three times;
(§10) (6) the experimental results were calculated according to the following formula: relative survival rate=(A value of each experimental group/A value of cell control group)×100%
(§11) Calculation of median-effect concentration (IC50, namely the drug concentration at which the inhibition rate is 50%, also known as half inhibitory concentration):
(§12) IC50 of the detected component was calculated by using a regression equation.

Cyclin D1 = test: Western Blotting, Cyclin D1 level; format: cell-based; conditions: human liver cancer cells, Lewis lung cancer cells and other cancer cell lines and tumor tissues, read-out: Effective concentration (IC50) for inhibition of Cyclin D1
Source text: as §1, §2

Caspase3 = test: Western Blotting, increase of Caspase3 level; format: cell-based; conditions: liver cancer cells, Lewis lung cancer cells and other cancer cell lines and tumor tissue protein lysates, 48 h treatment, read-out: Effective concentration to increase Caspase-3 by 50%
Source text: as §1, §2

[2] = Fluorescent imaging in vivo and in vitro; format: physicochemical; conditions: 60 mg/kg body weight/0.2 ml
Experimental: Fluorescent images and wavelength ranges of the compounds as obtained in embodiments 1-7 were determined according to the literature method (Chen Y, et al., 2-(3-{1-Carboxy-5-[(6-[18F]fluoro-pyridine-3-carbonyl)-amino]-pentyl}-ureido)-pentanedioic acid, [18F]DCFPyL, a PSMA-based PET imaging agent for prostate cancer. Clin Cancer Res, 2011, 17(24):7645-53), and the results were shown in Table 3 and FIG. 1.
2. Experimental procedure: For in-vitro fluorescent imaging and detection: the compounds Ia-Ih as obtained in embodiments 1-7 were prepared in 1.5 ml plastic centrifugal tubes into a solution with the concentration of 60 mg/0.2 ml, fluorescent signals and images were respectively detected and recorded with a multifunctional microplate reader and an animal in-vivo imaging instrument under the following excitation and emission wavelength conditions, and the obtained results were shown in Table 3 and FIG. 1 (small test tube photos); and for the detection of fluorescent images in-vivo: after 16 h of fasting treatment of the experimental animals (while drinking water was normally supplied), solutions of the compounds Ia-Ih as obtained in embodiments 1-7 were prepared according to a concentration of 60 mg/kg body weight/0.2 ml, and intraperitoneally administered to the animal, the fluorescent images were detected and recorded with the animal in-vivo imaging instrument under the following excitation and emission wavelength conditions, the obtained results were shown in FIG. 1 (animal in-vivo imaged photos); wherein, the experimental excitation wavelength range was 360 nm-590 nm; and the detection wavelength range was 410 nm-700 nm.

EZH2 = target: T1, EZH2 (Homo sapiens, UniProt Q15910); test: EZH2 enzyme activity in protein extracts of human tumor xenografts of treated mice (EZH2 Assay Kit); format: in vivo; conditions: tumors excised 6 h after medication, SAHA 25 mg/kg
T1 construct: the EZH2 enzyme was replaced with tumor protein extracts in each group; from tissue; host or cells: human tumour xenografts excised from treated nude mice

[3] = test system: highly metastatic Lewis lung cancer cell lines; test: MTT growth inhibition, LLC cells; format: cell-based, mouse; conditions: Mus musculus, Lewis lung carcinoma, 72 h after treatment, read-out: Drug concentration (IC50) at which 50% cancer cells survived
Source text: as §3, §4, §5, §6, §7, §8, §9, §10, §11, §12

T1 sequence (Q15910 whole entry): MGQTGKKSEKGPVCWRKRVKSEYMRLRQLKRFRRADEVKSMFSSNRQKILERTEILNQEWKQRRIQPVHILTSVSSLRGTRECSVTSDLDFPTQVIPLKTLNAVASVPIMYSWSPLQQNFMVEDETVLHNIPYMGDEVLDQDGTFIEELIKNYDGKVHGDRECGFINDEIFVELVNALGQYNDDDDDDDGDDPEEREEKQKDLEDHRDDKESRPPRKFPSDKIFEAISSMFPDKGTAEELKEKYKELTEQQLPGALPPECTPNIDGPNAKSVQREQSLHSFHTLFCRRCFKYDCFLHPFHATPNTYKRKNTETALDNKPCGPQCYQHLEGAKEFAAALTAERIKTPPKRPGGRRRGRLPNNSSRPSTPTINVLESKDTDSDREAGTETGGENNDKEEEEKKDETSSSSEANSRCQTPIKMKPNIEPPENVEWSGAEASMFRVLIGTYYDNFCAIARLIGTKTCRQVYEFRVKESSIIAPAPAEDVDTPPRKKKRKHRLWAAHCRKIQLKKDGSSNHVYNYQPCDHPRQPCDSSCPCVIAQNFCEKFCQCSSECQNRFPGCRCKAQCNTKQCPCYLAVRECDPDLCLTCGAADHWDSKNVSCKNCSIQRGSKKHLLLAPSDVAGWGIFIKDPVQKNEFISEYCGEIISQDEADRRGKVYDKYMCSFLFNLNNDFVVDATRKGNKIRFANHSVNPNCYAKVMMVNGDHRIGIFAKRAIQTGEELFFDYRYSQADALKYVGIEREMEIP
T1 sequence (O75530 whole entry partner): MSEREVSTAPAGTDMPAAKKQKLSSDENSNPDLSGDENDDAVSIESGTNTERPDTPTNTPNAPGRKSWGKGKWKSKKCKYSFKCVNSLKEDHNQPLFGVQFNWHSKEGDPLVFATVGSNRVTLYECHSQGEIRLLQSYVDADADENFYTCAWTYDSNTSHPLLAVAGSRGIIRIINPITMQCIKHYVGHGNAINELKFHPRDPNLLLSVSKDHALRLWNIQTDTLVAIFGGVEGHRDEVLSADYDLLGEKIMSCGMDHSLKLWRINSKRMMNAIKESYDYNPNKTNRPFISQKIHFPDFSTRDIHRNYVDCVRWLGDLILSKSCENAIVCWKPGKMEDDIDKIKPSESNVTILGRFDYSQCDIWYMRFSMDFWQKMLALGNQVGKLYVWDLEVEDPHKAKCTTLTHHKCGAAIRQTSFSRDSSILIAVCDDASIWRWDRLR
T1 sequence (Q15022 whole entry partner): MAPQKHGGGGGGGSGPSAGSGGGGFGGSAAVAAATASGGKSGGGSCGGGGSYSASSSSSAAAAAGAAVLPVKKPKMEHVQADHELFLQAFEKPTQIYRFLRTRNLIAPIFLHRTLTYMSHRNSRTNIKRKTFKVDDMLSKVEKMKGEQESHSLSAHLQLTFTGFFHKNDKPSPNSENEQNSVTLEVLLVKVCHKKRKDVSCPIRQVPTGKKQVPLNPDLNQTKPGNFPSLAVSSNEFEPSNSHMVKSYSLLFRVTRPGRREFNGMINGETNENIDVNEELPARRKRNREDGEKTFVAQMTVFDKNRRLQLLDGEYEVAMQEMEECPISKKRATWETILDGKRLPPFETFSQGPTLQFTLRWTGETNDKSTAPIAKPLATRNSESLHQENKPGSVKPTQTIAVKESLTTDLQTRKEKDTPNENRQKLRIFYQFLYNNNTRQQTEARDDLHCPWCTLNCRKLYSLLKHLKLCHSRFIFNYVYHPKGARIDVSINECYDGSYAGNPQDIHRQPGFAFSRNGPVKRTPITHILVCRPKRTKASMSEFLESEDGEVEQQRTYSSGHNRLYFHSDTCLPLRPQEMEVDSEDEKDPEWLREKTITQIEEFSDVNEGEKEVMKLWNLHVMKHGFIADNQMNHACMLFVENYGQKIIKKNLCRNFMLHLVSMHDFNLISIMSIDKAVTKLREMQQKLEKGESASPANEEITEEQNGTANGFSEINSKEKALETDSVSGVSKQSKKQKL

Structure (SMILES)	decrease of HDAC3 enzyme activity/inhibition rate (HDAC3; A549 tumor grown in vivo) [%* and]	decrease of HDAC3 enzyme activity/inhibition rate (HDAC3; MCF7 tumor grown in vivo) [%* and]	decrease of HDAC3 enzyme activity/inhibition rate (HDAC3; MDA-MB231 tumor grown in vivo) [%* and]	decrease of HDAC3 enzyme activity/inhibition rate (HDAC3; SMMC7721 tumor grown in vivo) [%* and]	IC50 (Dvl-1) [µM]	IC50 [1] [µM]	IC50 (Cyclin D1) [µM]	EC50 (Caspase3) [µM]	Emission (fluorescent wavelength range detectable in vivo and in vitro) [2]	Excitation (fluorescent wavelength range detectable in vivo and in vitro) [2]	decrease of EZH2 enzyme activity/inhibition rate (EZH2; A549 tumor grown in vivo)	decrease of EZH2 enzyme activity/inhibition rate (EZH2; MCF7 tumor grown in vivo)	decrease of EZH2 enzyme activity/inhibition rate (EZH2; MDA-MB231 tumor grown in vivo)	decrease of EZH2 enzyme activity/inhibition rate (EZH2; SMMC7721 tumor grown in vivo)	IC50 [3] [µM]
CCNC(=O)CCC(NC(=O)c1cc2cc([N+](=O)[O-])ccc2oc1=O)C(=O)OCC (stereo in doubt) [Compound If, (R)-2-(6-nitro-2-oxo-2H-benzopyran-3-carboxamido)-5-ethylamino-5-oxo-pentanoic acid ethyl ester]	73	67	65	66	< 200	129	< 90	< 80	430-650 nm	360-610 nm	65%*(A549)-	66%*(MCF7)	63%*(MDA-MB231)	64%*(SMMC7721);	100
CCNC(=O)CC[C@@H](NC(=O)c1cc2cc(Br)ccc2oc1=O)C(=O)OCC [Compound Id, (R)-2-(6-Br-2-oxo-2H-benzopyran-3-carboxamido)-5-ethylamino-5-oxo-pentanoic acid ethyl ester]	71	60	63	65	< 250	128	< 100	< 100	430-670 nm	36-610 nm	61%*(A549)-	56%*(MCF7)	58%*(MDA-MB231)	59%*(SMMC7721);	116
CCNC(=O)CC[C@@H](NC(=O)c1cc2cc(Cl)ccc2oc1=O)C(=O)OCC [Compound Ic, (R)-2-(6-CI-2-oxo-2H-benzopyran-3-carboxamido)-5-ethylamino-5-oxo-pentanoic acid ethyl ester]	71	60	63	65	< 250	86	< 100	< 100	430-670 nm	360-610 nm	61%*(A549)-	56%*(MCF7)	58%*(MDA-MB231)	59%*(SMMC7721);	131
CCNC(=O)CCC(NC(=O)c1cc2ccccc2oc1=O)C(=O)OCC (stereo not drawn) [Compound Ib, ethyl 5-ethylamino-5-oxo-2-(2-oxo-2H-benzopyran-3-carboxamido)pentanoate]	65	–	–	63	< 300	135	< 120	< 120	430-650 nm	360-610 nm	54%*(A549)-	–	–	57%*(SMMC-7721)	115
CCNC(=O)CCC(NC(=O)c1cc2ccccc2oc1=O)C(=O)OC (stereo not drawn) [Compound Ia, methyl 5-ethylamino-5-oxo-2-(2-oxo-2H-benzopyran-3-carboxamido)pentanoate]	–	–	–	60	< 135	250	< 125	< 125	430-650 nm	360-610 nm	–	–	–	54%*(SMMC-7721)	185
CCNC(=O)CCC(NC(=O)c1cc2cc(F)ccc2oc1=O)C(=O)OCC (stereo in doubt) [Compound Ie, (R)-2-(6-F-2-oxo-2H-benzopyran-3-carboxamido)-5-ethylamino-5-oxo-pentanoic acid ethyl ester]	70	65	60	63	< 150	210	< 160	< 100	430-650 nm	360-610 nm	58%*(A549)-	62%*(MCF7)	59%*(MDA-MB231)	56%*(SMMC7721);	110
CCNC(=O)CC[C@H](N)C(=O)OC [Compound IIa, theanine methyl ester]	–	–	–	–	–	400	–	–	–	–	–	–	–	–	100
CCNC(=O)CC[C@H](N)C(=O)OCC [Compound IIb, theanine ethyl ester]	–	–	–	–	–	400	–	–	–	–	–	–	–	–	300
